Reference: patent US11753407B2, “Compounds for treating spinal muscular atrophy” (PTC Therapeutics, Inc., priority 2012, dated 2023)

Columns and labels:
[1] = test system: SMN2 minigene mRNA (SMN2-A minigene) in HEK293H cells; experiment: SMN2 minigene mRNA splicing RT-qPCR assay in cultured cells; format: cell-based, human; settings: Homo sapiens, HEK293-H; concentration increasing full length SMN2 mRNA 1.5-fold relative to vehicle-treated cells; HEK293H cells with SMN2-A minigene, 24 hours, 7-point concentration data; read-out: EC1.5x for production of full length SMN2 mRNA
Description: The reverse transcription-quantitative PCR-based (RT-qPCR) assay is used to quantify the level of the full length SMN2 minigene mRNA containing SMN2 exon 7 in a HEK293H cell line stably transfected with said minigene and treated with a test compound.
Protocol. HEK293H cells stably transfected with the SMN2-A minigene construct described above (10,000 cells/well) are seeded in 200 μL of cell culture medium (DMEM plus 10% FBS, with 200 μg/mL hygromycin) in 96-well flat-bottom plates and the plate is immediately swirled to ensure proper dispersal of cells, forming an even monolayer of cells. Cells are allowed to attach for at least 4-6 hours. Test compounds are serially diluted 3.16-fold in 100% DMSO to generate a 7-point concentration curve. A solution of test compound (1 μL, 200× in DMSO) is added to each cell-containing well and the plate is incubated for 24 hours in a cell culture incubator (37° C., 5% CO2, 100% relative humidity). 2 replicates are prepared for each test compound concentration. The cells are then lysed in Cells-To-Ct lysis buffer and the lysate is stored at −80° C.
Primer SMN Forward A (SEQ ID NO. 1) hybridizes to a nucleotide sequence in exon 7 (nucleotide 22 to nucleotide 40), primer SMN Reverse A (SEQ ID NO. 2) hybridizes to a nucleotide sequence in the coding sequence of Firefly luciferase, SMN Probe A (SEQ ID NO. 3) hybridizes to a nucleotide sequence in exon 7 (nucleotide 50 to nucleotide 54) and exon 8 (nucleotide 1 to nucleotide 21). The combination of these three oligonucleotides detects only SMN1 or SMN2 minigenes (RT-qPCR) and will not detect endogenous SMN1 or SMN2 genes.
The SMN forward and reverse primers are used at final concentrations of 0.4 μM. The SMN probe is used at a final concentration of 0.15 μM. The GAPDH primers are used at final concentrations of 0.2 μM and the probe at 0.15 μM.
The SMN2-minigene GAPDH mix (15 μL total volume) is prepared by combining 7.5 μL of 2× RT-PCR buffer, 0.4 μL of 25× RT-PCR enzyme mix, 0.75 μL of 20× GAPDH primer-probe mix, 4.0075 μL of water, 2 μL of 10-fold diluted cell lysate, 0.06 μL of 100 μM SMN forward primer, 0.06 μL of 100 μM SMN reverse primer, and […].
PCR is carried out at the following temperatures for the indicated time: Step 1: 48° C. (15 min); Step 2: 95° C. (10 min); Step 3: 95° C. (15 sec); Step 4: 60° C. (1 min); then repeat Steps 3 and 4 for a total of 40 cycles.
Each reaction mixture contains both SMN2-A minigene and GAPDH primers/probe sets (multiplex design), allowing simultaneous measurement of the levels of two transcripts.
Two SMN spliced products are generated from the SMN2 minigene. The first spliced product containing exon 7, corresponding to full length SMN2 mRNA, is referred to herein using the term “SMN2 minigene FL.” The second spliced product lacking exon 7 is referred to herein using the term “SMN2 minigene Δ7.”
The increase of SMN2 minigene FL mRNA relative to that in cells treated with vehicle control is determined from real-time PCR data using a modified ΔΔCt method (as described in Livak and Schmittgen, Methods, 2001, 25:402-8). The amplification efficiency (E) is calculated from the slope of the amplification curve for SMN2 minigene FL and GAPDH individually. The abundances of SMN2 minigene FL and GAPDH are then calculated as (1+E)^−Ct, where Ct is the threshold value for each amplicon. The abundance of SMN2 minigene FL is normalized to GAPDH abundance. The normalized SMN2 minigene FL abundance from test compound-treated samples is then divided by normalized SMN2 minigene FL abundance from vehicle-treated cells to determine the level of SMN2 FL mRNA relative to vehicle control.
For compounds of Formula (I) or a form thereof disclosed herein, Table 4 provides the […] for production of full length SMN2 mRNA that was obtained from the 7-point concentration data generated for each test compound according to the procedure of Biological Example 2. […]

[2] = test system: Smn protein in SMA patient fibroblast cells (GM03813); experiment: Smn protein assay in cultured cells (SMN HTRF); format: cell-based, human; settings: SMA patient fibroblast cells, 48 hours; for maximum fold (Fold) increase of Smn protein: 7-point concentration data, fold relative to vehicle control; for EC1.5x for Smn protein expression: 7-point concentration curve, SMN HTRF, concentration producing 1.5 times Smn protein vs DMSO vehicle control
Description: The SMN HTRF (homogeneous time resolved fluorescence) assay is used to quantify the level of Smn protein in SMA patient fibroblast cells treated with test compounds.
Protocol. Cells are thawed and cultured in DMEM-10% FBS for 72 hours. Cells are trypsinized, counted and re-suspended to a concentration of 25,000 cells/mL in DMEM-10% FBS. The cell suspension is plated at 5,000 cells per well in a 96 well microtiter plate and incubated for 3 to 5 hours. […] Test compounds are serially diluted 3.16-fold in 100% DMSO to generate a 7-point concentration curve. 1 μL of test compound solution is transferred to cell-containing wells and cells are incubated for 48 hours in a cell culture incubator (37° C., 5% CO2, 100% relative humidity). Triplicate samples are set up for each test compound concentration. After 48 hours, the supernatant is removed from the wells and 25 μL of the RIPA lysis buffer, containing protease inhibitors, is added to the wells and incubated with shaking at room temperature for 1 hour. 25 μL of the diluent is added and then 35 μL of the resulting lysate is transferred to a 384-well plate, where each well contains 5 μL of the antibody solution (1:100 dilution of anti-SMN d2 and anti-SMN kryptate in SMN reconstitution buffer). The plate is centrifuged for 1 minute to bring the solution to the bottom of the wells, then incubated overnight at room temperature. Fluorescence for each well of the plate at 665 nm and 620 nm is measured on an EnVision multilabel plate reader (Perkin-Elmer).
The normalized fluorescence signal is calculated for each sample, Blank and vehicle control well by dividing the signal at 665 nm by the signal at 620 nm. Normalizing the signal accounts for possible fluorescence quenching due to the matrix effect of the lysate. The ΔF value (a measurement of Smn protein abundance as a percent value) for each sample well is calculated by subtracting the normalized average fluorescence for the Blank control wells from the normalized fluorescence for each sample well, then dividing this difference by the normalized average fluorescence for the Blank control wells and multiplying the resulting value by 100. The ΔF value for each sample well represents the Smn protein abundance from test compound-treated samples. The ΔF value for each sample well is divided by the ΔF value for the vehicle control wells to calculate the fold increase in Smn protein abundance relative to the vehicle control.
For compounds of Formula (I) or a form thereof disclosed herein, Table 9 provides the EC1.5× for Smn protein expression that was obtained from the 7-point concentration data generated for each test compound according to the procedure of Biological Example 7. The term “EC1.5× for Smn protein expression” is defined as that concentration of test compound that is effective in producing 1.5 times the amount of Smn protein in an SMA patient fibroblast cell compared to the amount produced from the DMSO vehicle control. An EC1.5× for Smn protein expression between >3 μM and ≤10 μM is indicated by one star (*), an EC1.5× between >1 μM and ≤3 μM is indicated by two stars (**), an EC1.5× between >0.3 μM and ≤1 μM is indicated by three stars (***) and an EC1.5x≤0.3 μM is indicated by four stars (****).
For compounds of Formula (I) or a form thereof disclosed herein, Table 10 provides the maximum fold (Fold) increase of Smn protein that was obtained from the 7-point concentration data generated for each test compound according to the procedure of Biological Example 7. A maximum fold increase of ≤1.2 is indicated by one star (*), a fold increase between >1.2 and ≤1.35 is indicated by two stars (**), a fold increase between >1.35 and ≤1.5 is indicated by three stars (***), a fold increase between >1.5 and ≤1.65 is indicated by four stars (****) and a fold increase >1.65 is indicated by five stars (*****).

| SMILES | EC (1.5-fold increase) [1] | maximum fold (Fold) increase of Smn protein [2] | EC1.5x for Smn protein expression [2] |
| --- | --- | --- | --- |
| COc1ccc(-c2cc(=O)n3cc(N4CCCNCC4)ccc3n2)cc1OC [Compound 10, 7-(1,4-diazepan-1-yl)-2-(3,4-dimethoxyphenyl)-4H-pyrido[1,2-a]pyrimidin-4-one] | 1 to 3 µM | ** (a fold increase between >1.2 and ≤1.35 is indicated by two stars (**)) | – |
| COc1ccc(-c2cc(=O)n3cc(N4CCNC(C)(C)C4)ccc3n2)cc1 [Compound 17, 7-(3,3-dimethylpiperazin-1-yl)-2-(4-methoxyphenyl)-4H-pyrido[1,2-a]pyrimidin-4-one] | 1 to 3 µM | * (A maximum fold increase of ≤1.2 is indicated by one star (*)) | – |
| COc1cccc(-c2cc(=O)n3cc(N4CCCNCC4)ccc3n2)c1 [Compound 27, 7-(1,4-diazepan-1-yl)-2-(3-methoxyphenyl)-4H-pyrido[1,2-a]pyrimidin-4-one] | 3 to 30 µM | * (A maximum fold increase of ≤1.2 is indicated by one star (*)) | – |
| O=c1cc(-c2cc(F)c(O)c(F)c2)nc2ccc(N3CCNCC3)cn12 [Compound 71, 2-(3,5-difluoro-4-hydroxyphenyl)-7-(piperazin-1-yl)-4H-pyrido[1,2-a]pyrimidin-4-one] | 1 to 3 µM | **** (a fold increase between >1.5 and ≤1.65 is indicated by four stars (****)) | * (An EC1.5× for Smn protein expression between >3 μM and ≤10 μM is indicated by one star (*)) |
| O=c1cc(-c2cc(F)cc(C(F)(F)F)c2)nc2ccc(N3CCNCC3)cn12 [Compound 76, 2-[3-fluoro-5-(trifluoromethyl)phenyl]-7-(piperazin-1-yl)-4H-pyrido[1,2-a]pyrimidin-4-one] | 0.3 to 1 µM | ** (a fold increase between >1.2 and ≤1.35 is indicated by two stars (**)) | – |
| COc1ccc(-c2cc(=O)n3cc(N4CCNCC4)ccc3n2)cc1OC(F)F [Compound 99, 2-[3-(difluoromethoxy)-4-methoxyphenyl]-7-(piperazin-1-yl)-4H-pyrido[1,2-a]pyrimidin-4-one] | 0.3 to 1 µM | **** (a fold increase between >1.5 and ≤1.65 is indicated by four stars (****)) | *** (an EC1.5× between >0.3 μM and ≤1 μM is indicated by three stars (***)) |
| O=c1cc(-c2ccc3nccn3c2)nc2ccc(N3CCNCC3)cn12 [Compound 108, 2-(imidazo[1,2-a]pyridin-6-yl)-7-(piperazin-1-yl)-4H-pyrido[1,2-a]pyrimidin-4-one] | 0.1 to 0.3 µM | *** (a fold increase between >1.35 and ≤1.5 is indicated by three stars (***)) | – |
| Cc1cn2cc(-c3cc(=O)n4cc(N5CCN(C)CC5)ccc4n3)ccc2n1 [Compound 114, 2-(2-methylimidazo[1,2-a]pyridin-6-yl)-7-(4-methylpiperazin-1-yl)-4H-pyrido[1,2-a]pyrimidin-4-one] | 1 to 3 µM | *** (a fold increase between >1.35 and ≤1.5 is indicated by three stars (***)) | – |
| Cc1cn2cc(-c3cc(=O)n4cc(N5CCN[C@@H](C)C5)ccc4n3)ccc2n1 [Compound 115, 2-(2-methylimidazo[1,2-a]pyridin-6-yl)-7-[(3S)-3-methylpiperazin-1-yl]-4H-pyrido[1,2-a]pyrimidin-4-one] | < 0.1 µM | **** (a fold increase between >1.5 and ≤1.65 is indicated by four stars (****)) | **** (an EC1.5x≤0.3 μM is indicated by four stars (****)) |
| Cc1cn2cc(-c3cc(=O)n4cc(N5CCCNCC5)ccc4n3)ccc2n1 [Compound 116, 7-(1,4-diazepan-1-yl)-2-(2-methylimidazo[1,2-a]pyridin-6-yl)-4H-pyrido[1,2-a]pyrimidin-4-one] | 0.1 to 0.3 µM | *** (a fold increase between >1.35 and ≤1.5 is indicated by three stars (***)) | * (An EC1.5× for Smn protein expression between >3 μM and ≤10 μM is indicated by one star (*)) |
| Cc1cn2nc(-c3cc(=O)n4cc(N5CCNCC5)ccc4n3)cc2c(C)n1 [Compound 120, 2-(4,6-dimethylpyrazolo[1,5-a]pyrazin-2-yl)-7-(piperazin-1-yl)-4H-pyrido[1,2-a]pyrimidin-4-one] | < 0.1 µM | ***** (a fold increase >1.65 is indicated by five stars (*****)) | **** (an EC1.5x≤0.3 μM is indicated by four stars (****)) |
